Among the targets are Moubatin (Ornithodoros moubata, UniProt Q04669); TSGP2_R85G (Ornithodoros kalahariensis, UniProt Q8I9U1, R104G); T2_M4 (Ornithodoros kalahariensis, UniProt Q8I9U1, K92N/T101K/T85M/T94V); T2_H95D (Ornithodoros kalahariensis, UniProt Q8I9U1, H114D); TSGP3_G85R (Ornithodoros kalahariensis, UniProt Q8I9U0, G104R); T2_ML (Ornithodoros kalahariensis, UniProt Q8I9U1, A132G/E131N/E136D/G133S/G134A/L130S/L135D/M127Q/M129Q/V137K).

Holding throughout (assay): Isothermal titration calorimetry
Common to all, as to type: binding
(In general: Isothermal titration calorimetry measures the heat released or taken up as one component is titrated into another.)

The next experiment deals with T1, Moubatin-like 3 (Ornithodoros parkeri, UniProt A6N9T1).
T1 sequence (A6N9T1 20-176): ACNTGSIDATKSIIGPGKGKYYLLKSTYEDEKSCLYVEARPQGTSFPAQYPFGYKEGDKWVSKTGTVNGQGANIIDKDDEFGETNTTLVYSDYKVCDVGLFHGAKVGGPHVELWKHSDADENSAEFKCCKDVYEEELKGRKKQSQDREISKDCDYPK

Another experiment addresses T2, TSGP2 (Ornithodoros kalahariensis, UniProt Q8I9U1).
T2 sequence (Q8I9U1 20-163): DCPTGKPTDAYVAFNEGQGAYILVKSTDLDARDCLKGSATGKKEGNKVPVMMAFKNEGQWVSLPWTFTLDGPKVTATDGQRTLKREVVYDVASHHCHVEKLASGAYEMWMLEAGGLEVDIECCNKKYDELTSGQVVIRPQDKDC

The target of another experiment is T3, TSGP3 (Ornithodoros kalahariensis, UniProt Q8I9U0).
T3 sequence (Q8I9U0 20-163): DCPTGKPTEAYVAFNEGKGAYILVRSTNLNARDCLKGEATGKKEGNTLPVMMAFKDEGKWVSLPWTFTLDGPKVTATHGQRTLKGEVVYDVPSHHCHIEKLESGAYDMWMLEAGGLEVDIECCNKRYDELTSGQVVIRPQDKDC

The structures appear in SMILES notation.

Take `NCCc1c[nH]cn1` [Histamine, histamine]: the Kd (in general, the constant that tells how readily two partners part at equilibrium) on Moubatin-like 3 stood at 106 ± 3 nM.

Take `CCCCC/C=C\C/C=C\C/C=C\C/C=C\CCCC(=O)O` [Arachidonic acid, arachidonic acid (AA)]: the Kd at Moubatin came to 34 ± 6 nM; on TSGP2 it was 69 ± 7 nM; on TSGP3, 59 ± 24 nM.

On to `CCCCC[C@H](O)/C=C/[C@@H]1[C@@H](C/C=C\CCCC(=O)O)[C@H]2CO[C@@H]1C2` [U46619, 9,11-dideoxy-9α,11α-methanoepoxy prostaglandin F2α (stable thromboxane A2 analog)], for which the Kd on TSGP2_R85G stood at 7 ± 1 nM; on Moubatin, 20 ± 3 nM; at TSGP3 it was 9 ± 1 nM.

On to `NCCc1c[nH]c2ccc(O)cc12` [Serotonin, serotonin (5-hydroxytryptamine, 5-HT)], for which, at Moubatin-like 3, the Kd was 116 ± 13 nM.

As to `CCCCC/C=C\C[C@@H](O)/C=C/C=C/C=C\[C@@H](O)CCCC(=O)O` [LTB4, leukotriene B4], the equilibrium dissociation constant (Kd) on T2_M4 amounted to 6 ± 0.8 nM; at T2_H95D it was 12 ± 2 nM; at TSGP2_R85G it was 10 ± 1.6 nM; at Moubatin it was 16 ± 3 nM; at TSGP2, 18 ± 3 nM; at TSGP3 it was 21 ± 5 nM. Besides, the figures for the Kd at TSGP3_G85R and at T2_ML were 228 ± 36 nM and 12 ± 2 nM, respectively.

`CCCCC[C@H](O)/C=C/C1CC2CC(C2)C1C/C=C\CCCC(=O)O` (stereo partly drawn) [cTXA2, carbocyclic thromboxane A2]: the results for the Kd at Moubatin and at TSGP3 were 24 ± 4 nM and 5 ± 0.7 nM, respectively.

Values taken from article PMC2613973 (Insect biochemistry and molecular biology, 2008).
